The text below walks through data of patent publication US4822791A, “Pharmaceutical compositions of-2,2-1,1-[bis-2,2'-(3,1-benzoxazin-4-one)9 ethylenes” (priority 1984, dated 1989).

Data set [1] relates to mast cell in abdominal cavity. As to the kind of experiment: Release of histamine by antigen DNP-Ascaris, mast cell in abdominal cavity (Test Example 12). The format is cell-based, rat. The following applies: Rattus norvegicus, Mast cell; 10^-3 M; read-out: Effect on release of histamine by antigen DNP-Ascaris, Mast cell in abdominal cavity (control 100). How it is done:
(§1) Collection of mast cells in abdominal cavity and thoracic cavity and sensitizing of cells were conducted in similar manners to those in Test Example 10, respectively.
(§2) (1) Preparation of DNP-Ascaris antiserum was conducted in manner similar to that in Test Example 6.
(§3) This is conducted in amanner similar to that in Test Example 10.
(§4) This is conducted in a manner similar to that in Test Example 10.

Data set [2] deals with T1, hyaluronidase (Bos taurus, UniProt Q2YDK3).
T1 sequence (Q2YDK3 36-553): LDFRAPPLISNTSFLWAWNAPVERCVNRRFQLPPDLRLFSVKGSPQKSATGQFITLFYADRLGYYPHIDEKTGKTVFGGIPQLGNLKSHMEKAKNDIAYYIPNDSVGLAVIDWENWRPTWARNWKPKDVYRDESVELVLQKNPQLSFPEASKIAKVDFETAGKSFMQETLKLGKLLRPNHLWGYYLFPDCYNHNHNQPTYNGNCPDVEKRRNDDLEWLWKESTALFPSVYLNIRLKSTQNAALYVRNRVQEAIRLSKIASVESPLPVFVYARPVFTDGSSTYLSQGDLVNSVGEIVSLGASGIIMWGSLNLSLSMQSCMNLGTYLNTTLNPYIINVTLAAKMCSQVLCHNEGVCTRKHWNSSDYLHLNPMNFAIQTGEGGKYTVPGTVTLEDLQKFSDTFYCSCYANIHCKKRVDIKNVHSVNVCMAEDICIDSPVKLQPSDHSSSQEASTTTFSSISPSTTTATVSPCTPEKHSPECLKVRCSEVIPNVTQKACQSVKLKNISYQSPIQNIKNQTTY
As to the kind of experiment: Anti-hyaluronidase activity (modified Morgan-Elson method). The format is biochemical. As to conditions: hyaluronidase 340NF unit/ml; activating agent Compound 48/80 or CaCl2; read-out: IC50.

In data set [3] the test system is Mast cell in thoracic cavity. As to the kind of experiment: Release of histamine by antigen DNP-Ascaris, mast cell in thoracic cavity (Test Example 12). The class given is cell-based. The following applies: Rattus norvegicus, 10^-3 M, read-out: Effect on release of histamine by antigen DNP-Ascaris, Mast cell in thoracic cavity (control 100). The procedure: as §1, §2, §3, §4

Data set [4] deals with passive cutaneous anaphylaxis (PCA). As to the kind of experiment: Anti-passive cutaneous anaphylaxis activity (PCA) in rats (Test Example 9). The class given is in vivo. The following applies: Rattus norvegicus, po, 10 animals. The procedure:
Wistar strain rats were sensitized with ovalbumin using aluminium hydroxide gel and Bordetella Pertussis vaccine as adjuvants. Dilutions of antiserum (16-fold and 32-fold) obtained by collecting blood samples 14 days later were administered subcutaneously in the dorsal skin of the rats of the same strain at the rate of 0.1 ml per spot, and the rats were grown for 48 hours. One hour after peroral administration of the sample solution, a mixture of antigen ovalbumin and Evans-blue dye was administered to the tail venous of the animal according to the ordinary procedure. Thirty minutes later, the animals were sacrificed by exsanguination, and the areas of blue spots (long diameter×short diameter) eliciting on the portion of the antiserum injection at the dorsal skin were measured to obtain the rate of inhibition based on the average value shown by the control animals.
This test was conducted in a manner similar to that in Test Example 2, except that the dilutions of antiserum were 12- and 24-folds.

A short description of data set [5]: Acute toxicity LD50 in ICR mice (Test Example 11). The following applies: mouse, in vivo, one week, Provit method. The procedure:
As test animals, ICR-strain mice (male) were used. According to the conventional procedure, suspension or solution of test sample was administered to the animals. From the number of the died animals until one week after the administration, LD50 values were obtained by Provit method.

In data set [6] the test system is Mast cell in thoracic cavity. As to the kind of experiment: Histamine release by antigen DNP-Ascaris, mast cell in thoracic cavity (Test Example 10). The class given is cell-based. The following applies: Rattus norvegicus, 20 min, 10^-3 M, read-out: released amount of histamin, Mast cell in thoracic cavity (control shown as 100). The procedure: (§5) Examination was made cn the activity of inhibition of histamine release from mast cell by antigen-antibody reaction.
(§6) Preparation of DNP-Ascaris antiserum was conducted in a manner similar to that in Test Example 6.
(§7) Heparin-containing PBS was injected into the abdominal cavity of rat which was sacrificed by bleeding, after which the abdomen was well massaged, and then peritoneal exudate was sampled. The same liquid was also injected into the thoracic cavity, and after shaking the breast for several minutes, the thoracic cavity liquid was sampled, which was purified by washing several times by centrifugation. The number of the mast cells contained in this liquid was measured and adjusted to a designated concentration. (Mast cells, 8.0×10^4 cells/ml).
To the cell suspension (4 ml, 9×10^5 cells/ml), anti-DNP-Ascaris rat serum (PCA titer, 32) (4 ml) was added, and the mixture was incubated in the presence of heparin at 37° C. for 2.5 hours. To the solution, 70 microgramms/ml phosphatidylserin PBS solution (0.5 ml) was added and the mixture was incubated at 37° C. for 12 minutes, after which 140 microgramms/ml antigen DNP-Ascaris PBS solution (0.5 ml) was added and the mixture was incubated further for 20 minutes. […]

The test system of data set [7] is mast cell in abdominal cavity. As to the kind of experiment: Histamine release by antigen DNP-Ascaris, mast cell in abdominal cavity (Test Example 10). The format is cell-based, rat. As to conditions: 10^-3 M. How it is done:
as §5, §6, §7
To the cell suspension (4 ml, 9×10^5 cells/ml), anti-DNP-Ascaris rat serum (PCA titer, 32) (4 ml) was added, and the mixture was incubated in the presence of heparin at 37° C. for 2.5 hours. To the solution, 70 microgramms/ml phosphatidylserin PBS solution (0.5 ml) was added and the mixture was incubated at 37° C. for 12 minutes, after which 140 microgramms/ml antigen DNP-Ascaris PBS solution (0.5 ml) was added and the mixture was incubated further for 20 minutes.
After completion of the reaction, the reaction liquid was centrifuged (500 G, 10 min.) to obtain supernatant solution, and histamin in the supernatant solution was subjected to fluorometry by orthophthalal aldehyde method. The released amount of histamin in the control was shown as 100.

The subject of another data set is SRS-A. As to the kind of experiment: Anti-SRS-A activity, contraction of guinea pig ileum by crude SRS-A solution. Also noted: key to Anti-SRS-A activity (rate of inhibition against the contraction amount): % inhibition of SRS-A-induced ileum contraction. How it is done:
A piece of lungs of guinea pig sensitized with ovalbumin was incubated with antigen ovalbumin at 37° C. for 20 minutes to obtain a supernatant solution, which was used as a crude SRS-A solution.
A piece of ileum of normal guinea pig was suspended in Magnus tube filled with Tyrode's solution and incubated with the solution of drug to be examined for a certain duration, and the contraction of the piece of ileum induced by adding the above crude SRS-A solution was determined on the basis of the contraction rate attributed to hystamine dihydrochloride 10^-6 M. The rate of inhibition against the contraction amount was taken as anti-SRS-A activity.

For data set [8], the system named is anaphylaxis reaction to inhalated antigen. As to the kind of experiment: Antigen inhalation test on passive sensitized guinea pig (experimental asthma model). The format is in vivo. As to conditions: 200 mg/kg po.
Procedure: The test compound and Tranilast were respectively suspended at the time of use in 5% gum arabic solution containing 0.1% Tween 80 at the rate of 40 mg/ml, and were perorally administered at the rate of 0.5 ml per 100 g body weight of the animal.
DSCG was dissolved at the time of use in physiological saline solultion for injection at the rate of 5.0 mg/ml, and was intravenously injected at the rate of 0.1 ml per 100 g body weight of the animal.
Anti-ovalbumin rabbit serum diluted with physiological saline solution for injection so as tc contain anti-ovalbumin rabbit antibody at the rate of 0.187 mg N/ml was intravenously administered to guinea pig at the rate of 0.1 ml per 100 g of body weight and it was passively sensitized.
Twenty-four hours later, the suspension of the compound prepared in (1) above was perorally or intravenously administered to the animal. The animal was put in the inhalation chamber one hour after the administration in case of the peroral administration and five minutes after the administration in case of the intravenous administration, and 2% physiological saline solution of antigen ovalbumin was inhaled by spraying. Over 10 minutes' period from the time immediately after the forced inhalation, the time until its fall attributed to anaphylaxis reaction was recorded, and the numbers of alive and dead animals after lapse of 10 minutes were also counted.
The subject of data set [9] is passive cutaneous anaphylaxis (PCA). As to the kind of experiment: Anti-passive cutaneous anaphylaxis (PCA) activity in rats (Test Example 2). As to conditions: Rattus norvegicus, 200 mg/kg PO, N 10. The format is in vivo, Wistar strain rats. The method in brief:
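Antiserum from Wistar rats sensitized with ovalbumin (alum plus B. pertussis adjuvant) was diluted 16- or 32-fold and injected into dorsal skin of naive rats, which were held 48 h. Compound was given orally 1 h before i.v. ovalbumin plus Evans blue.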

Data set [10] concerns hyaluronidase. As to conditions: known from the literature; cited from earlier work.
Data set [11] has as its system mast cell in abdominal cavity. As to the kind of experiment: Inhibition of histamine release from mast cell in abdominal cavity in rat (Test Example 6). As to conditions: Rattus norvegicus, Mast cell, 20 min, DNP-Ascaris 20 microgramms/ml, read-out: Amount of histamine released from peritoneal mast cell (Control = 100). The format is cell-based. The procedure: Examination was made on the activity of inhibition of histamine release from mast cell by antigen-antibody reaction.
Swine ascaris extract solution was dinitrophenylated according to Aisen's method, dialysed, and lyophilized. The product was administered as antigen together with Bordetella Pertussis vaccine subcutaneously into the foot pad of rat. Eight days later, blood was taken to obtain antiserum. The PCA titer for this antiserum in rat was 32 to 64.
Heparin-containing PBS was injected intraperitoneally to rat which was sacrificed by exsanguination, after which the abdomen was well massaged to collect the injected PBS, which was purified by washing several times by centrifugation. The number of the mast cells contained in the solution was determined and adjusted to the designed concentration. As to method of sensitizing the cell, the above cell suspension (6 ml, 2×10^6 cells/ml) was treated with anti-DNP-Ascaris rat serum (PCA titer 32) (6 ml) and the mixture was incubated in the presence of hepain at 37° C. for 2 hours.
To the sensitized mast cell suspension the solution of the drug to be tested was added, and the mixture was preliminarily incubated at 37° C. for 12 minutes. After addition of the solution of antigen DNP-Ascaris (final concentration, 20 microgramms/ml), the mixture was further incubated for 20 minutes. After completion of the reaction, the solution was centrifuged (500 G, 10 min.) under a low temperature to obtain a supernatant solution. Histamine contained in the supernatant solution was subjected to fluorometry by crthophthalaldehyde method.

Setting [12] is: read-out: Inhibition, Anti-serum Dilution: × 12.
[13] abbreviates: read-out: Inhibition, Anti-serum Dilution: × 24.

Values joined by “and” are separate entries in the source; they are usually repeats but may differ in a detail not shown here. Equal entries are not always repeated. Where two headings read alike, the source gives them in different places.

As a reminder, the IC50 is the concentration that inhibits the measured activity by half. In the case of `COc1ccc(C=C(C(=O)Nc2cc(Cl)ccc2C(=O)O)C(=O)Nc2cc(Cl)ccc2C(=O)O)cc1OC` [Compound 21], the activity at 1000 µM was 48.3% in data set [1] and 73% in [3]. The concentration for half-maximal inhibition (IC50) at hyaluronidase [2] was determined as 15 µM.

With `COC(=O)c1ccccc1NC(=O)C(=Cc1ccccc1)C(=O)Nc1ccccc1C(=O)OC` [Compound 51], the results for the inhibition in vivo at 10 mg/kg in data set [4] (setting [12]) and in [4] (setting [13]) were 28.1% and 30.3%, respectively. The inhibition in vivo at 50 mg/kg came out at 34.2% in [4] (setting [12]) and 37.5% in data set [4] (setting [13]). The LD50 at 168 h in data set [5] (po, peroral, read-out: LD50 Value (mg/kg of body weight) Peroral administration) is no less than 8000 mg/kg; in [5] (intravenous, read-out: LD50 Value (mg/kg of body weight) Intravenous administration), 238 mg/kg. Also, the activity at 1000 µM in [6] was 75.1%; in data set [7] (Rattus norvegicus, Mast cell, 20 min, read-out: released amount of histamin, Mast cell in abdominal cavity (control shown as 100)), 50.4%. Also, the “inhibition of release of histamine from mast cells in abdominal and thoracic cavity (in words)” value in [7] is recorded as “action of inhibiting release of histamine”.

`COc1ccc(/C=C/C(=O)Nc2ccccc2C(=O)O)cc1OC` [Tranilast, reference compound]: the “Anti-SRS-A activity (rate of inhibition against the contraction amount)” value with SRS-A (10^-3 M), with SRS-A (10^-4 M), in the data set with SRS-A (10^-5 M) and with SRS-A (10^-6 M) was 0 in each case. In the data set with SRS-A (compound 11 at a concentration of 10^-3 M), the “anti-SRS-A activity (in words)” value was “no activity”. For the same compound, the “Extended rate (%)” value in data set [8] was -3.0%. The “preventive effect on anaphylaxis reaction (in words)” value in [8] is listed as “no activity”. Also, the “Average time for falling Mean ± S.E.” value in data set [8] (N 5) was found to be 150.8 ± 14.8 s. For the same compound, the “Required time (sec.) for falling and Number of death (#), single animals” value in data set [8] (N 5, observed 10 minutes, # shows death) is 116 s and 126 s and 141 s and 181 s and 190 s. In addition, the inhibition in vivo at 200 mg/kg is 2.1% in data set [4] (setting [12]), 10.7% in data set [4] (setting [13]), 1.8% in [9] (read-out: Average Inhibition Rate (%) Antiserum Dilution: × 16) and 15.8% in data set [9] (read-out: Average Inhibition Rate (%) Antiserum Dilution: × 32). Moreover, in the data set with hyaluronidase [10], the “effect on hyaluronidase activity (in words)” value was “inhibit hyaluronidase activity”. For the same compound, in data set [11] (10^-3 M), the activity at 1000 µM is 29%. The activity at 100 µM in data set [11] (10^-4 M) turned out to be 67%. In data set [11] (10^-5 M), the activity at 10 µM worked out at 95%. For the same compound, the activity at 1 µM in [11] (10^-6 M) amounted to 95%.
